{"source": "patent US8420696B2", "about": "“Use of low-dose ladostigil for neuroprotection” (priority 2005, dated 2013)", "key": {"ChE": {"tested_on": "ChE", "assay": "Example 2: total ChE activity in cortex, hippocampus and plasma after ladostigil treatment", "format": "in vivo, rats", "procedure": "The effect of chronic ladostigil treatment on ChE activity in the cortex and hippocampus of rats was determined one week after icv STZ in 12 rats (3 treated with water and 9 with ladostigil). The effect of acute treatment with ladostigil 1 or 17 mg/kg was determined 2 hrs after drug administration. […] The brain was rapidly removed, washed with saline on ice and the cortex, hippocampus and striatum dissected out, quickly weighed and stored at −70° C. until assay. Total ChE activity in the cortex and hippocampus was measured as described in Wang et al., Gender differences in the effect of rivastigmine on brain cholinesterase activity and cognitive function in rats, Neuropharmacology (2000) 39:497-506, using the spectrophotometric method of Ellman et al., A new and rapid colorimetric determination of acetylcholinesterase activity, Biochem. Pharmacol. (1961) 7:88-95 with acetylthiocholine (Sigma Ltd) as a substrate using homogenate of 100 mg tissue in 1 ml phosphate buffer. To determine only butyrylcholinesterase (BuChE) activity the amounts of tissue/ml of buffer were increased 3-fold and butyrylthiocholine (Sigma Ltd) was used as a substrate. MAO A and B activity was measured in homogenates of striatum as described in Weinstock et al., Limited potentiation of blood pressure response to oral tyramine by brain-selective monoamine oxidase A-B inhibitor, TV-3326 in conscious rabbits, Neuropharmacology (2002) 43:999-1005."}, "[1]": {"tested_on": "nitrotyrosine immunoreactivity in astrocytes", "assay": "Example 1: nitrotyrosine immunoreactivity in hippocampal CA1 astrocytes one week after icv STZ", "format": "in vivo, Sprague-Dawley rats", "conditions": "for Increase in nitrotyrosine immunoreactivity in astrocytes in three areas of the CA1 region of the hippocampus: ladostigil 1.0 mg/kg daily oral, one week before to one week after icv STZ", "procedure": "The study was performed on male Sprague-Dawley rats (Harlan, Jerusalem) weighing 320-340 g, aged 4 months, according to the guidelines of the University Committee for Institutional Animal Care and based on those of the National Institutes of Health, USA. The rats were housed for one week prior to surgery in the Animal House at an ambient temperature of 21±1° C. and a 12 hr diurnal light cycle (lights on at 0700 hr).\nMale Sprague-Dawley rats (30) weighing 320-340 g, were anaesthetized by an intraperitoneal (i.p.) injection of Equithesin 0.3 ml/kg. STZ (0.5 mg) in 2 μl artificial cerebrospinal fluid (CSF) was injected into each lateral ventricle of 20 rats. The stereotaxic co-ordinates for icv injection were: 0.9 mm posterior, 1.8 mm lateral and 3.8 mm ventral from the bregma level. Control rats (10) received a bilateral injection of 2 μl artificial CSF. Half of the STZ-injected rats were given ladostigil (1 mg/kg) orally in a volume of (1 ml/kg) one week before, and for one week after icv STZ. The remainder, received 1 ml/kg water. The rats were anaesthetized with sodium pentobarbitone, perfused transcardially and the brains processed for immunocytochemistry as described below.\nThe brains were sectioned in a cryostat in 30 μm thick slices and stained immunochemically with the following markers: Nitrotyrosine, a marker of nitrative/oxidative stress, was stained with rabbit anti-nitrotyrosine from Upstate (Lake Placid, N.Y., USA), diluted 1:100. Glial fibrillary acidic protein (GFAP), a marker of astrocyte activation, was stained with mouse antibody, clone GA-5 from Sigma (Rehovot, Israel), diluted 1:500. […]. For rabbit antibodies, the secondary donkey anti-rabbit conjugated with horseradish peroxidase from Chemicon (Temecula, Calif., USA), was diluted 1:200. For mouse anti-GFAP, the secondary goat anti mouse conjugated with horseradish peroxidase from Sigma (Rehovot, Israel), was diluted 1:100. Colour development was obtained by reaction with diaminobenzidine and hydrogen peroxide as described in Shoham et al., Intracerebroventricular injection of streptozotocin causes neurotoxicity to myelin that contributes to spatial memory deficits in rats, Exp. Neurol. (2003) 184:1043-52. Images were obtained by bright field microscopy and quantitative assessments of appropriate markers were made by means of densitometric measurements with AnalySIS software.\nRectangular fields measuring 200 μm×100 μm were sampled from these areas in two sections containing the hippocampus from each rat. The percentage area in which nitrotyrosine immunoreactivity was seen was computed and averaged between the two sections.\nDensitometic data were analyzed by univariate ANOVA followed by Duncan's post hoc test."}, "[2]": {"tested_on": "aged rats (spatial learning)", "assay": "Example 3: spatial learning of aged rats in Morris water maze", "format": "in vivo, Wistar rats", "conditions": "1 mg/kg/day in drinking fluid for four months from age 16 months", "procedure": "Experiments were performed in 30 male rats of the Wistar strain. […] The rats were housed in pairs at an ambient temperature of 21° C. They were weighed once weekly and their fluid intake measured daily for two weeks and then twice weekly for the remaining 4 months. Ten of the rats were started on ladostigil 1 mg/kg/day in the drinking fluid when aged 16 months and given the drug for four months. The remaining 10 rats of the same age were given regular drinking water. At the end of the four months spatial memory of these 20 rats and of another 10 aged 3 months was tested in the Morris water maze as previously described (Shoham et al, 2006)."}, "[3]": {"conditions": "STZ + ladostigil 1 mg/kg orally one week before and one week after icv STZ, mean of two sections per rat"}, "[4]": {"conditions": "STZ + ladostigil 1 mg/kg orally, n = 5"}}, "note": "“And” between values parts separate entries of the source, which are not always exact repeats. Identical values can stand only once. “Also recorded” adds a separate entry of the source.", "data": [{"smiles": "C#CCN[C@@H]1CCc2ccc(OC(=O)N(C)CC)cc21", "note": "[ladostigil, R(+)-6-(N-methyl,N-ethyl-carbamoyloxy)-N′-propargyl-1-aminoindan]", "values": [{"measurement": "ChE (%) inhibition", "setting": "ChE; Cortex, 60 min after last dose, chronic 1 mg/kg, seven days after icv STZ", "value": "16.1 ± 4.7", "unit": "%"}, {"measurement": "ChE (%) inhibition", "setting": "ChE; Cortex, 120 min after last dose, chronic 1 mg/kg, seven days after icv STZ", "value": "23.6 ± 3.1", "unit": "%"}, {"measurement": "ChE (%) inhibition", "setting": "ChE; Hippocampus, 60 min, chronic 1 mg/kg", "value": "4.9 ± 2.6", "unit": "%"}, {"measurement": "ChE (%) inhibition", "setting": "ChE; Hippocampus, 120 min, chronic 1 mg/kg", "value": "5.9 ± 3.2", "unit": "%"}, {"measurement": "ChE (%) inhibition", "setting": "ChE; Plasma, 120 min, chronic 1 mg/kg", "value": "20 ± 2", "unit": "%"}, {"measurement": "ChE inhibition in the hippocampus or plasma", "setting": "ChE; acute administration 1 mg/kg", "value": "not in the hippocampus or plasma"}, {"measurement": "ChE inhibition in both brain regions and in plasma", "setting": "ChE; acute administration 17 mg/kg, 17 mg/kg", "value": "40-42% and 40%"}, {"measurement": "Inhibition of ChE activity in the plasma", "setting": "ChE; chronic 1 mg/kg", "value": 20, "unit": "%"}, {"measurement": "Inhibition of ChE in the hippocampus", "setting": "ChE; chronic 1 mg/kg", "value": "no ChE inhibition occurred; also recorded: no significant AChE inhibition occurred"}, {"measurement": "Inhibition of total ChE activity in the cortex", "setting": "ChE; chronic 1 mg/kg, seven days after icv STZ, 1 or 2 hrs after the last dose", "value": "24% and 28% and ~20%"}, {"measurement": "Nitrotyrosine Immunoreactivity, Alveus (percentage area), individual rat", "setting": "[1]; [3]", "value": "4 and 9.5 and 7 and 9 and 15"}, {"measurement": "Nitrotyrosine Immunoreactivity, Stratum oriens (percentage area), individual rat", "setting": "[1]; [3]", "value": "14.5 and 19 and 5.5 and 8.5 and 20.5"}, {"measurement": "Nitrotyrosine Immunoreactivity, Stratum radiatum (percentage area), individual rat", "setting": "[1]; [3]", "value": "1.5 and 22 and 3 and 7.5 and 11.5"}, {"measurement": "Nitrotyrosine Immunoreactivity, Alveus (percentage area), group Mean ± SEM", "setting": "[1]; [4]", "value": "8.9 ± 1.8"}, {"measurement": "Nitrotyrosine Immunoreactivity, Stratum oriens (percentage area), group Mean ± SEM", "setting": "[1]; [4]", "value": "13.6 ± 2.9"}, {"measurement": "Nitrotyrosine Immunoreactivity, Stratum radiatum (percentage area), group Mean ± SEM", "setting": "[1]; [4]", "value": "9.1 ± 3.7"}, {"measurement": "Increase in nitrotyrosine immunoreactivity in astrocytes in three areas of the CA1 region of the hippocampus", "setting": "[1]", "value": "prevented the increase"}, {"measurement": "Increase in nitrotyrosine immunoreactivity in astrocytes in three areas of the CA1 region of the hippocampus", "setting": "[1]; listed as Ladostigil", "value": "completely prevented the increase"}, {"measurement": "Difference in spatial learning between young and old rats (Morris water maze)", "setting": "[2]", "value": "substantially abolished"}]}]}
